The test system of assay [1] is congenital, idiopathic nystagmus (subgroup: acquired nystagmus in MS patients). The experiment in a line: Double blind placebo controlled pilot trial of neramexane for treatment of nystagmus. The format is in vivo, human. The conditions noted are these: as compared to the placebo group, Neramexane mesylate up to 75 mg/d, 7 weeks. Here is the method:
The objective of this pilot project is to conduct a clinical trial to assess the efficacy of neramexane as a treatment for nystagmus.
The primary objective of this study is to investigate the safety and efficacy of Neramexane mesylate at daily doses of up to 75 mg in the treatment of congenital, idiopathic nystagmus in comparison to placebo. In addition, a subgroup of up to 20 MS patients suffering from acquired nystagmus are included and analyzed in an exploratory manner. In both patient groups, effects of treatment is assessed in comparison with placebo using a two-period cross-over design (two treatment periods of 7 weeks each, separated by a wash-out phase.
The study is designed as a randomized, double-blind placebo-controlled, pilot study using a two-period cross-over design. Suitable patients are randomly assigned to one of the two treatment sequences of the cross-over trial (sequence A-B or B-A), i.e. double-blind treatment with Neramexane (A) and matching placebo tablets (B).
Patients with congenital nystagmus (no pathology other than nystagmus; primary analysis population) or acquired nystagmus subsequent to MS (exploratory analysis only) • male or female outpatients aged between 18 and 80 years (inclusive) at screening; • patients with a metric visual acuity (VA) of 6/9 or lower 6/9); • for females of childbearing potential (last menses less than one year prior to enrollment): negative pregnancy test at baseline; either surgically sterile or use of a medically accepted method of contraception during the entire duration of the study; • congenital idiopathic nystagmus patients: uneventful gross neurological examination; • MS patients: diagnosis ‘multiple sclerosis’ as confirmed on the basis of McDonald criteria; • normal results of electroretinography (ERG) and visually evoked potential (VEP) testing; historical results may be accepted (period of acceptability to be defined) • patients having given written informed consent; • patient expected and willing to comply with the scheduled visits, dosing scheme (in particular placebo), and other requirements of the study; • results of normal physical examination, electrocardiogram (ECG), and safety laboratory at screening, or abnormal findings which are judged not clinically significant by the investigator; • Refraction prior to enrolment and, if required, prescription and receipt of new glasses or contact lenses prior to baseline visual acuity measurement
Neramexane mesylate 25 mg modified release tablets and matching placebo tablets are administered as film coated tablets. […]
Visual acuity (VA) is the standard by which the outcomes of drug therapy in nystagmus are measured in the framework of clinical trials. […]

The test system of assay [2] is N-methyl-D-aspartate (NMDA) receptors. Conditions: cited from earlier work.
The subject of assay [3] is acquired pendular nystagmus due to multiple sclerosis. The conditions noted are these: in vivo; cited from earlier work.
Assay [4] deals with congenital idiopathic and acquired nystagmus. Conditions: human, in vivo; cited from earlier work.

On to `CC1(C)CC(C)(C)CC(C)(N)C1` [neramexane, 1-amino-1,3,3,5,5-pentamethylcyclohexane], for which, in assay [1], the “secondary outcome: expanded nystagmus acuity function” value was “improvement”, the “secondary outcome: nystagmus intensity” value is reported as “improvement” and the “secondary outcome: reading ability” value was “improvement”. Also, in assay [1] (two-period cross-over), the “primary outcomes, such as visual acuity” value is reported as “improvement”. Moreover, the “NMDA-receptor affinity / mode of antagonism” value in assay [2] is “low to moderate-affinity, non-competitive NMDA-receptor antagonist”.

For `CC12CC3CC(C)(C1)CC(N)(C3)C2` [memantine], the “activity in acquired pendular nystagmus due to multiple sclerosis” value in assay [3] is “demonstrated activity”. Besides, the “effectiveness in the treatment of congenital idiopathic and acquired nystagmus” value in assay [4] is given as “may be effective”.
